Laboratory results taken from the supplement of paper PMC10627819.

Experiments:
B. subtilis 168 [1] = assay: fitness (endpoint OD595 vs no drug) (fraction); higher = more growth
Procedure, shortened: (§1)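 Plates with 384 wells were inoculated at OD595 0.01 using 30 µl of TSB, LB Lennox or CY, or 55 µl for S. pneumoniae. Incubation was at 37 °C, with OD595 measured every 30 min for 14 h. Fitness is the stationary-phase transition optical density over the robust mean of no-drug control wells, after first-reading background subtraction; it is capped at 1.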

S. aureus DSM 20231 [2] = assay: as above
Procedure, shortened: as §1

S. pneumoniae D39V [3] = assay: as above
Procedure, shortened: as §1

S. aureus Newman = assay: Bliss interaction score (quartile over a dose matrix) (fitness difference); higher = more antagonism (negative = synergy)
Procedure, shortened: (§2)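 Each plate was normalised to the robust mean of its own no-drug wells, using OD595 at entry into stationary phase, with values capped at 1. This normalised growth is the fitness value. The Bliss score is the difference between observed and product-expected fitness, with single-drug fitness inferred from the combination data and quartiles taken over technical, biological and donor/recipient replicates.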

B. subtilis 168 [4] = assay: as above
Procedure, shortened: as §2

S. aureus DSM 20231 [5] = assay: as above
Procedure, shortened: as §2

S. pneumoniae D39V [6] = assay: as above
Procedure, shortened: as §2
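Wherever Bliss interaction score (quartile over a dose matrix) is given: first quartile when negative (synergy) and third quartile when positive (antagonism).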

CC(=O)NC[C@H]1CN(c2ccc(N3CCOCC3)c(F)c2)C(=O)O1 [Linezolid] + CN[C@@H]1[C@H](O)[C@H](NC)[C@H]2O[C@@]3(O)C(=O)C[C@@H](C)O[C@H]3O[C@@H]2[C@H]1O [Spectinomycin]
one replicate
Conditions | fitness
B. subtilis 168 [1], first compound 0.0625 µg/mL, partner 2 µg/mL | 0.893
B. subtilis 168 [1], first compound 0.0625 µg/mL, partner 4 µg/mL | 0.814
B. subtilis 168 [1], first compound 0.0625 µg/mL, partner 8 µg/mL | 0.654
S. aureus DSM 20231 [2], first compound 0.125 µg/mL, partner 32 µg/mL | 0.472
S. aureus DSM 20231 [2], first compound 0.125 µg/mL, partner 64 µg/mL | 0.0532
S. aureus DSM 20231 [2], first compound 0.25 µg/mL, partner 32 µg/mL | 0.341
S. aureus DSM 20231 [2], first compound 0.25 µg/mL, partner 64 µg/mL | 0.037
S. aureus DSM 20231 [2], first compound 0.5 µg/mL, partner 32 µg/mL | 0.135
S. aureus DSM 20231 [2], first compound 0.5 µg/mL, partner 64 µg/mL | 0.0476
S. aureus DSM 20231 [2], first compound 1 µg/mL, partner 4 µg/mL | 0.0244
S. aureus DSM 20231 [2], first compound 1 µg/mL, partner 8 µg/mL | 0.0183
S. aureus DSM 20231 [2], first compound 1 µg/mL, partner 16 µg/mL | 0.009
S. pneumoniae D39V [3], first compound 0.2 µg/mL, partner 4 µg/mL | 0.8
S. pneumoniae D39V [3], first compound 0.2 µg/mL, partner 8 µg/mL | 0.769
S. pneumoniae D39V [3], first compound 0.4 µg/mL, partner 4 µg/mL | 0.633
S. pneumoniae D39V [3], first compound 0.4 µg/mL, partner 8 µg/mL | 0.659
S. pneumoniae D39V [3], first compound 0.8 µg/mL, partner 4 µg/mL | 0.271
S. pneumoniae D39V [3], first compound 0.8 µg/mL, partner 8 µg/mL | 0.302

fitness
Conditions | partner 2 µg/mL | partner 4 µg/mL | partner 8 µg/mL | partner 16 µg/mL
B. subtilis 168 [1], first compound 0.125 µg/mL | 0.507 | 0.426 | 0.336 | –
B. subtilis 168 [1], first compound 0.25 µg/mL | – | 0.0516 | 0.0689 | –
B. subtilis 168 [1], first compound 0.5 µg/mL | 0.0491 | 0.039 | 0.0208 | –
S. aureus DSM 20231 [2], first compound 0.125 µg/mL | – | 0.857 | 0.838 | 0.702
S. aureus DSM 20231 [2], first compound 0.25 µg/mL | – | 0.547 | 0.458 | 0.419
S. aureus DSM 20231 [2], first compound 0.5 µg/mL | – | 0.156 | 0.119 | 0.175
S. pneumoniae D39V [3], first compound 0.105 µg/mL | – | 0.767 | 0.73 | 0.694
S. pneumoniae D39V [3], first compound 0.21 µg/mL | – | 0.663 | 0.662 | 0.582
S. pneumoniae D39V [3], first compound 0.42 µg/mL | – | 0.454 | 0.343 | 0.284

Conditions | Bliss interaction score
B. subtilis 168 [4] | -0.0551
S. aureus DSM 20231 [5] | -0.0609
S. aureus Newman | -0.12
S. pneumoniae D39V [6] | -0.134

CC(=O)NC[C@H]1CN(c2ccc(N3CCOCC3)c(F)c2)C(=O)O1 [Linezolid] + CN[C@H](CC(C)C)C(=O)N[C@H]1C(=O)N[C@@H](CC(N)=O)C(=O)N[C@H]2C(=O)N[C@H]3C(=O)N[C@H](C(=O)N[C@H](C(=O)O)c4cc(O)cc(O)c4-c4cc3ccc4O)[C@H](O)c3ccc(c(Cl)c3)Oc3cc2cc(c3O[C@@H]2O[C@H](CO)[C@@H](O)[C@H](O)[C@H]2O[C@H]2C[C@](C)(N)[C@H](O)[C@H](C)O2)Oc2ccc(cc2Cl)[C@H]1O [Vancomycin]
Conditions | fitness
S. aureus DSM 20231 [2], first compound 0.125 µg/mL, partner 0.1875 µg/mL | 0.897
S. aureus DSM 20231 [2], first compound 0.125 µg/mL, partner 0.375 µg/mL | 0.936
S. aureus DSM 20231 [2], first compound 0.125 µg/mL, partner 0.75 µg/mL | 0.943
S. aureus DSM 20231 [2], first compound 0.25 µg/mL, partner 0.1875 µg/mL | 0.553
S. aureus DSM 20231 [2], first compound 0.25 µg/mL, partner 0.375 µg/mL | 0.596
S. aureus DSM 20231 [2], first compound 0.25 µg/mL, partner 0.75 µg/mL | 0.583
S. aureus DSM 20231 [2], first compound 0.5 µg/mL, partner 0.1875 µg/mL | 0.204
S. aureus DSM 20231 [2], first compound 0.5 µg/mL, partner 0.375 µg/mL | 0.18
S. aureus DSM 20231 [2], first compound 0.5 µg/mL, partner 0.75 µg/mL | 0.215
S. pneumoniae D39V [3], first compound 0.105 µg/mL, partner 0.125 µg/mL | 0.689
S. pneumoniae D39V [3], first compound 0.105 µg/mL, partner 0.25 µg/mL | 0.0692
S. pneumoniae D39V [3], first compound 0.105 µg/mL, partner 0.5 µg/mL | 0.0491
S. pneumoniae D39V [3], first compound 0.2 µg/mL, partner 0.03125 µg/mL | 0.77
S. pneumoniae D39V [3], first compound 0.2 µg/mL, partner 0.0625 µg/mL | 0.751
S. pneumoniae D39V [3], first compound 0.21 µg/mL, partner 0.125 µg/mL | 0.573
S. pneumoniae D39V [3], first compound 0.21 µg/mL, partner 0.25 µg/mL | 0.082
S. pneumoniae D39V [3], first compound 0.21 µg/mL, partner 0.5 µg/mL | 0.0299
S. pneumoniae D39V [3], first compound 0.4 µg/mL, partner 0.03125 µg/mL | 0.63
S. pneumoniae D39V [3], first compound 0.4 µg/mL, partner 0.0625 µg/mL | 0.604
S. pneumoniae D39V [3], first compound 0.42 µg/mL, partner 0.125 µg/mL | 0.339
S. pneumoniae D39V [3], first compound 0.42 µg/mL, partner 0.25 µg/mL | 0.0579
S. pneumoniae D39V [3], first compound 0.42 µg/mL, partner 0.5 µg/mL | 0.0734
S. pneumoniae D39V [3], first compound 0.8 µg/mL, partner 0.03125 µg/mL | 0.302
S. pneumoniae D39V [3], first compound 0.8 µg/mL, partner 0.0625 µg/mL | 0.255
S. pneumoniae D39V [3], first compound 0.8 µg/mL, partner 0.125 µg/mL | 0.188

S. aureus DSM 20231 [2], first compound 1 µg/mL, one replicate
Conditions | fitness
partner 0.1875 µg/mL | 0.0273
partner 0.375 µg/mL | 0.0396
partner 0.75 µg/mL | 0.0452

Conditions | Bliss interaction score
B. subtilis 168 [4] | 0.0387
S. aureus DSM 20231 [5] | 0.0467
S. aureus Newman | -0.044
S. pneumoniae D39V [6] | -0.13
